Legend:
[1] = target: rat brain synaptic membranes; conditions: binding on rat brain synaptic membranes; cited from earlier work
[2] = target: human brain neurotensin receptors; conditions: cited from earlier work
[3] = cited from earlier work
[4] = target: neurotensin receptor sites; assay: inhibition of [3H]neurotensin binding to guinea pig forebrain membranes
Method: Binding assays are performed by studying the inhibition of [^3 H]neurotensin binding to guinea pig forebrain membranes. The following results are obtained, using the unlabelled acetyl compound […]-OH (SEQ ID NO:4) (a) as the reference.

[5] = enzymatic stability in vitro in human serum; assay type: in vitro ADME
Method: The enzymatic stability of the four radioiodinated analogues (1), (2), (3) and (4) is determined in vitro in human serum in a conventional manner, showing that this stability is sufficient.

| Substance | Kd [1] [nM] | Kd ([2]; binding to human brain neurotensin receptors) [nM] | in vivo half-life [3] | pIC50 [4] | enzymatic stability [5] | affinity of neurotensin receptors in human brain ([2]; preliminary experiments, Sadoul et al. 1984) |
| --- | --- | --- | --- | --- | --- | --- |
| mono-iodo derivative of neurotensin: mono-iodo derivative of neurotensin itself; only tyrosine-3 iodinated with 125-iodide | 0.2 | 0.26 | only a few minutes |  |  |  |
| 2-*I-benzoyl-^1 Arg-^2 Arg-^3 Pro-^4 Tyr-^5 Ile-^6 Leu-OH [(3)] |  |  |  | 8.07 | sufficient |  |
| monoiodo-[Trp^11 ]-neurotensin (QLYENKPRRPWIL; Neurotensin 125I on Tyr3; UniProt P30990 151-163, looked up, variant Y11W) [monoiodo-[Trp11]-neurotensin] | 0.1 |  | only a few minutes |  |  | low affinity |
| (4*I-phenyl)acetyl-^1 Arg-^2 Arg-^3 Pro-^4 Tyr-^5 -Ile-^6 Leu-OH [(2)] |  |  |  | 7.87 | sufficient |  |
| 4-*I-benzoyl-^1 Arg-^2 Arg-^3 Pro-^4 Tyr-^5 Ile-^6 Leu-OH [(4)] |  |  |  | 8.10 | sufficient |  |
| (2-*I-phenyl)acetyl-^1 Arg-^2 Arg-^3 Pro-^4 Tyr-^5 Ile-^6 Leu-OH [(1)] |  |  |  | 8.05 | sufficient |  |
